US7052908B2, “Androgen receptor coactivators” (University of Rochester, priority 1998, dated 2006)

T1: wtAR (Homo sapiens, UniProt P10275)
T1 sequence (P10275 1-920): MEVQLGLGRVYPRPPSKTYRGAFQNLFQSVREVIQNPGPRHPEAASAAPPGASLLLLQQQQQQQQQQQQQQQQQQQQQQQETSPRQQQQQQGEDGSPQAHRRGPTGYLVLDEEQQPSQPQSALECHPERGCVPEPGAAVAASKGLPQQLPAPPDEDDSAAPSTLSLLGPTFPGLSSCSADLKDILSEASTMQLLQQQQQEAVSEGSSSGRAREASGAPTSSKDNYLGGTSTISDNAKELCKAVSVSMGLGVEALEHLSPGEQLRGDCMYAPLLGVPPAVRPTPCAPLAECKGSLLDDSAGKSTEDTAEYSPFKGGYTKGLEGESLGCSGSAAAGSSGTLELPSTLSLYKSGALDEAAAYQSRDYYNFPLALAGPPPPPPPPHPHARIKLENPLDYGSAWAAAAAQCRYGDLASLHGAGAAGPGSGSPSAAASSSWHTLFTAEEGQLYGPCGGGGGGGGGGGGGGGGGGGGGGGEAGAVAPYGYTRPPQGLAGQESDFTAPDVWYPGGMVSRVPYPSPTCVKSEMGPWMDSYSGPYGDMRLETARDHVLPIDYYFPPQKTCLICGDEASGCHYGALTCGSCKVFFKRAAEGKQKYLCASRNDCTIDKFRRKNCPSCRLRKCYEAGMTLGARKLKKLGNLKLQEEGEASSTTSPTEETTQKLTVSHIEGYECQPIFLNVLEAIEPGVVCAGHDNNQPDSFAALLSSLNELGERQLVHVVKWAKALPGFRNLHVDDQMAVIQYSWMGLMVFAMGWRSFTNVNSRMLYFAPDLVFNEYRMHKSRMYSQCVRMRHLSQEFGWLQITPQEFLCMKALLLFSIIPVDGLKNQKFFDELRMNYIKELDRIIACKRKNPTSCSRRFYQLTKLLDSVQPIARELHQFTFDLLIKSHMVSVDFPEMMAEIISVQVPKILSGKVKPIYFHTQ

T2: mARe708k (Homo sapiens, UniProt P10275, E710K)
T2 construct: expressed in transfected cells; host or cells: DU145
T2 sequence (P10275 1-920 E710K): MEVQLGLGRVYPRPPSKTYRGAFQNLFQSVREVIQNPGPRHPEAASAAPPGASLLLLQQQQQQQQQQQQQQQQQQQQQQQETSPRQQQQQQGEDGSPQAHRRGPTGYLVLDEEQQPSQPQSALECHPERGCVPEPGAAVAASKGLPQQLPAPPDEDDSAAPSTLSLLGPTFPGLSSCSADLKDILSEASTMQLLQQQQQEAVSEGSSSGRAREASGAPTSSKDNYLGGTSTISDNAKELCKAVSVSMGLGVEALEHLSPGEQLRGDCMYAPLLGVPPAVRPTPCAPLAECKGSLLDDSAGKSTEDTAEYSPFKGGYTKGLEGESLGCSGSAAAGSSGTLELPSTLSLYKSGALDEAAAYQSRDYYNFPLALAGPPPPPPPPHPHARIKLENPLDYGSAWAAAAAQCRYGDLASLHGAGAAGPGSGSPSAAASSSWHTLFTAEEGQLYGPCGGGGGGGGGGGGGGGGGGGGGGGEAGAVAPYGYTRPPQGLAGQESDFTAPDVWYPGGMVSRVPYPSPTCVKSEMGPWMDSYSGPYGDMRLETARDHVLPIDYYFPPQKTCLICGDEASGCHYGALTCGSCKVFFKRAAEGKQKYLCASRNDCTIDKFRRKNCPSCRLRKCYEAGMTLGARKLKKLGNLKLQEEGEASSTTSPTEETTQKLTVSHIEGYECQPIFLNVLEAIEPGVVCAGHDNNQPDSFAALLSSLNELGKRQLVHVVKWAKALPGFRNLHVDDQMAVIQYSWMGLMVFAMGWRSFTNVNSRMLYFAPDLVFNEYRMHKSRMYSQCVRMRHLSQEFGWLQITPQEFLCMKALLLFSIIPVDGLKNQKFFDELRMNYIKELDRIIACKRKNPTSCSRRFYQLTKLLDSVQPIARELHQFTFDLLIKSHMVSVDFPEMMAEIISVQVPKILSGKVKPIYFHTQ

T3: mARe708k (Homo sapiens, UniProt P10275)
T3 construct: expressed in transfected cells; host or cells: DU145
T3 sequence (P10275 1-920 E710K): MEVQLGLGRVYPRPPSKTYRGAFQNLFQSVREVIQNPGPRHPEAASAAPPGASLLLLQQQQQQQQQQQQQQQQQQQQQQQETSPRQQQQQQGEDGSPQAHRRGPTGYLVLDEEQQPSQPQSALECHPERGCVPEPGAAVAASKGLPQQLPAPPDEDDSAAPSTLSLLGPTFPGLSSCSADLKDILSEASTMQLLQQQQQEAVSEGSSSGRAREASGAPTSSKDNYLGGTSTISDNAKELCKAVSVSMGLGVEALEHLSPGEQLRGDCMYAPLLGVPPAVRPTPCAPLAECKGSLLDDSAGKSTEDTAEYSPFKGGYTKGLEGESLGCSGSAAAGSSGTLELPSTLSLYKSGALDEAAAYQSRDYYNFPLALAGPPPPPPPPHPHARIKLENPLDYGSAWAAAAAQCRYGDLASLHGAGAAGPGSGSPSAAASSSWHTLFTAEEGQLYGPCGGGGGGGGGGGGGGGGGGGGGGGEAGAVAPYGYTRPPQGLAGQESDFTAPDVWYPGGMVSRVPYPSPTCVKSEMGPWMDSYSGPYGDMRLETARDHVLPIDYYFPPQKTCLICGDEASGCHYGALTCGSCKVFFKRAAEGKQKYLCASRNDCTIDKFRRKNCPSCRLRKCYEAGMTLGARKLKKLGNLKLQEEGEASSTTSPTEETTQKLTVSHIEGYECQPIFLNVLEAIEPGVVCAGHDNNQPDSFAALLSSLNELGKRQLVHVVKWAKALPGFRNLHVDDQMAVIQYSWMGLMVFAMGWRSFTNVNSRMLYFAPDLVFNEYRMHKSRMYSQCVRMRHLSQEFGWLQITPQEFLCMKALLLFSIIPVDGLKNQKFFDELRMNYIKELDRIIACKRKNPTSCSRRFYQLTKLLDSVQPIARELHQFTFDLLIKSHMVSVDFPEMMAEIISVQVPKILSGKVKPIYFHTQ

T4: AR (Homo sapiens, UniProt P10275)
T4 sequence (P10275 1-920): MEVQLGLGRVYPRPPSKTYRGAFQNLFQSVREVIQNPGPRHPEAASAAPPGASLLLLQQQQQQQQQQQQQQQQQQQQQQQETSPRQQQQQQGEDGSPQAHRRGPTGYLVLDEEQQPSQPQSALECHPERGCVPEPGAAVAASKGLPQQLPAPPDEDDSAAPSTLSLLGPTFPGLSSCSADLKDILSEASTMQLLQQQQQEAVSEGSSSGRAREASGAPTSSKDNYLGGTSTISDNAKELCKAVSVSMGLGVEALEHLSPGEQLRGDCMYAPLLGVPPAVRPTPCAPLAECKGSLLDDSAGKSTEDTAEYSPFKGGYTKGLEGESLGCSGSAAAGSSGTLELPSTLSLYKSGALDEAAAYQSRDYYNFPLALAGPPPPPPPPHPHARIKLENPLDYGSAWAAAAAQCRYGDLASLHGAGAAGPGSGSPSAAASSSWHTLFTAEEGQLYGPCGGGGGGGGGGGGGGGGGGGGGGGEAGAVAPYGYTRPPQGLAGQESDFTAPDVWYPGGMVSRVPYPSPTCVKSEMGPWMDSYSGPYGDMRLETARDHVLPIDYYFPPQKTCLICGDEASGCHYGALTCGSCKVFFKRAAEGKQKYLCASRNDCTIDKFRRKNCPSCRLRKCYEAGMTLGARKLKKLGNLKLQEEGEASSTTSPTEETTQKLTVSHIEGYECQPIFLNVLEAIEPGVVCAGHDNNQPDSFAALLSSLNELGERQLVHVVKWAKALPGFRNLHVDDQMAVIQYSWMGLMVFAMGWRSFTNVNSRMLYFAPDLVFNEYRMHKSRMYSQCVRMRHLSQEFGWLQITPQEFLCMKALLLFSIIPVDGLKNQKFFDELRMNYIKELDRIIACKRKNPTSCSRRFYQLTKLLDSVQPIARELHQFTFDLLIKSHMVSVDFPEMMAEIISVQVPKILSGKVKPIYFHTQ


Tests used:
wtAR = target: T1, wtAR; assay: AR transactivation, transient transfection with MMTV-CAT reporter in DU145 cells; conditions: for AR transcriptional activity induction: 10 nM E2 or 1 μM HF
AR [1] = assay: Mammalian two-hybrid assay with CAT reporter in DU145 cells; type: cell-based, human; conditions: DU145; 10 nM DHT, or E2 or HF
Description: The mammalian two-hybrid system employed was essentially the protocol of Clontech (California), with the following modifications. […] The hinge and LBD of wtAR were then inserted into pGAL0. Similarly, the VP16 activation domain was fused to pCMX under the control of a CMV promoter, and designated pCMX-VP16 (provided by Dr. R. M. Evan).

mARe708k [2] = target: T2, mARe708k; assay: AR transactivation, transient transfection CAT reporter assay, mutant AR; type: cell-based
mARe708k [3] = target: T3, mARe708k; assay: as above; type: cell-based; conditions: mARe708k cotransfected with Rb and/or ARA70; 10 nM E2 or 1 μM HF
mARt877s = assay: as above; type: cell-based, human
AR [4] = target: T4, AR; assay: AR-activated transcription (CAT) in transfected H1299 cells; type: cell-based; parameters: expressed in transfected cells; host or cells: DU145 (A1), NCI H1299 (A7), PC3 (A8); conditions: H1299 cells with endogenous ARA54
Description: Since the C-terminal region of ARA54 (a.a. 361–471 of SEQ ID NO:2) isolated from prostate cDNA library has shown to be sufficient to interact with AR in yeast two-hybrid assays, we further investigated whether it could squelch the effect of ARA54 on AR-activated transcription in H1299 cells, which contain endogenous ARA54. The C-terminal region of ARA54 inhibits AR-mediated transcription by up to 70%; coexpression of exogenous full-length ARA54 reverses this squelching effect in a dose-dependent manner.
Human small lung carcinoma H1299 cell line, which has no endogenous AR protein, were transfected with AR and ARA24/Ran. Because ARA24/Ran is one of the most abundant and ubiquitously expressed proteins in various cells, both sense and antisense ARA24/Ran mammalian expression plasmids were tested.

| Molecule | response of wtAR transactivation to ligand (wtAR; E2 10^-9-10^-7 M or HF 10^-7-10^-5 M, in the presence or absence of ARA54) | AR transcriptional activity induction (wtAR; wild type AR cotransfected with Rb and ARA70) [fold] | AR transcriptional activity induction (wtAR; wild type AR cotransfected with Rb or ARA70) | response of wtAR transcriptional activity to ligand (wtAR; without ARA55, only at higher concentrations (10^-7 M for E2, 10^-5 M for HF)) | CAT activity with GAL0AR and VP16-ARA55 cotransfected (AR [1]) | agonistic activity toward ARe708k (mARe708k [2]) | AR transcriptional activity induction (mARe708k [3]) | response of Art877a transactivation to ligand (mARt877s; absence of ARA54, E2 10^-9-10^-7 M, HF 10^-7-10^-5 M) | response of LNCaP mAR to ligand compared to wtAR (mARt877s; compared to wtAR) | inhibition of AR-mediated transcription (AR [4]) |
| --- | --- | --- | --- | --- | --- | --- | --- | --- | --- | --- |
| CC(C)(O)C(=O)Nc1ccc([N+](=O)[O-])c(C(F)(F)F)c1 [HF, hydroxyflutamide, reference compound] | responded only marginally | 12 | 3–4 fold | responded marginally | not induced | no agonistic activity | almost no induction | responded | responded much better | – |
| C-terminal region of ARA54: a.a. 361–471 of ARA54, dominant negative inhibitor of AR-mediated transcription (protein) ANFNQSGNIADSSLSFTFTNSSNGPNLITTQTNSQALSQPIASSNVHDNFMNNEITASKIDDGNNSKPLSPGWTDQTAYNAFGITTGMFNTTTMDDVYNYLFDDEDTPPNPKKERNEYLQADEANKRLLDQRYGKRVIQKALEEMESKEWLEKNSKSCPCCGTPIEKLDGCNKMTCTGCMQYFCWICMGSLSRANPYKHFNDPGSPCFNRLFYAVDVDDDIWEDE | – | – | – | – | – | – | – | – | – | up to 70% |
